# Experiments:
# E. amylovora S435 [1] = test: Management of fire blight on shoots of potted McIntosh apple trees; type: in vivo, Erwinia amylovora; settings: treated 2 h after inoculation, formulations diluted to 20%, streptomycin 100 ppm, 10 d
# Method: A trial was conducted at the IRDA research station in Saint-Bruno-de-Montarville, Québec to evaluate the efficacies of the best isolates previously screened. To simulate fire blight, Malus x domestica ‘McIntosh’ cultivar trees were inoculated then treated 2 h later with 20% (w/w) isolate dilutions. Inoculum was obtained by suspending a 5-d culture of the virulent strain E. amylovora […] in potassium phosphate buffer (pH=6.5) in King B agar which favors the growth of this phytopathogen. The bacterial density was adjusted to ˜1×10^9 CFU/mL. Actively growing potted trees (cv. McIntosh grafted onto M26) were inoculated by transversely bisecting the two youngest leaves with scissors dipped in the inoculum. One or two shoots were inoculated per tree. Two hours after inoculation, candidate biological control agent suspensions were sprayed to runoff onto five trees per treatment using a low-pressure sprayer. The experimental design was completely randomized.
# Inoculated controls were sprayed either with water or with the medium used to formulate the candidate biocontrol products. Uninoculated controls were sprayed only with water. […] Severity scores were analyzed with a cumulative link mixed model (clmm) in the “ordinal” package of R. Treatment and observation date were used as fixed effects. […]
# [2] = tested on: Erwinia amylovora strain S01; test: Field trial to control fire blight on Rome apple trees, Geneva NY; type: in vivo
# Method: A field trial was conducted to determine the performance of the formulated product based on the vegetative cells of Pseudomonas poae FL10F and its extracellular metabolites produced in the supernatants and was compared to antibiotic (FireWall 17 WP Streptomycin), copper fungicide (Cueva, Certis, USA) and the biological product Blossom Protect based on two strains of Aureobasidium pullulans. […] Both antibiotic and copper that were used in this trial were EPA registered products. Pseudomonas poae FL10F was cultivated for 2 days at 30° C. and 200 rpm and reached an OD600 nm=2.50, which was empirically determined to represent 2.50×10^9 CFU/mL by plating serial dilutions of the suspension and counting colonies. A 4L of product based on Pseudomonas poae FL10F and its metabolites was produced as described above and was sprayed more than 2 months later on apple Rome trees. Three samples of this formulated product were retained in sterile 50 mL polypropylene centrifuge tubes at room temperature for long-term activity and bacterial count studies.
# The 4L product was used during in a field trial conducted in Phelps, (Geneva) NY to evaluate the product against fire blight. Apple Rome were used for this study that had 5 to 12 blossom clusters per tree. These were 1-year-old trees from Waffler Nursery, Wolcott, N.Y.
# The experimental treatments were applied using a CO2 Backpack sprayer that was calibrated to deliver 100 gallons per acre (Trees were sprayed to first drip with a “dilute” solution of products.) The sprayer was calibrated at 42 PSI and used 2 Hollow Cone (TXVK18) Nozzles.
# An evaluation of treatments was conducted using the method where scissors were dipped into a solution of a streptomycin sensitive Erwinia amylovora strain S01, and the two smallest leaves on each terminal or shoot were cut in half. This severe test is used to simulate infection that can occur following hailstorms. The scissors were dipped into the Erwinia amylovora S01 solution prior to each cut. The apical terminal shoot and the terminal leaves on any side shoots were cut. For the size of these trees, the number of terminals that were cut varied from 9 to 18. To evaluate the treatments for this method, each treatment was applied as before to all leaves and shoots of seven individual trees. The inoculations occurred near dusk, and 1.15 inches of rain occurred during the overnight period. All treatments were applied 30 minutes before the infection and then re-applied 24 hours after the initial inoculation. The second application of treatments was applied to the same trees. The product based on Fluorescent Pseudomonas poae FL10F and its metabolites was first diluted at a concentration of 20% (w/w) with water then it was mixed properly and sprayed.
# At 3 weeks following the scissor inoculation, each terminal shoot was rated for the length in inches with typical symptoms of fire blight (rated as SEVERITY). Then the percentage of all shoots that had any symptoms of fire blight was calculated as INCIDENCE).
# The objective of this trial was to compare the activity of P. poae FL with antibiotic (Streptomycin), copper fungicide (Cueva, Certis, USA) and the biological product Blossom Protect based on two strains of Aureobasidium pullulans (Porter et al., 1960). Apple trees were infected with […] CFU/mL solution of Erwinia amylovora. The concentration of various treatments applied are represented in Table 13. The medium used in Treatment 7 is the same one used to cultivate the P. poae FL composed of Nutrient Broth NB (Difco) supplemented with 0.5% (w/w) glycerol and a concentration of 4% NaCl (w/w). Neither the medium nor the treatments used were phytotoxic to apple leaves and no phytotoxicity was noted on the apple trees in this study.
# E. amylovora S435 [3] = test: Agar disc diffusion assay of cell-free supernatants and fractions; type: cell-based, Erwinia amylovora; settings: active fraction from bioassay-guided fractionation
# Method: To obtain cell-free supernatants, cultures of both strains were centrifuged at 25 000 rpm for 1 hour. The pellets were discarded and the supernatants were filtered using Stericup™ vacuum filtration system (0.2 μm). Fresh cell-free supernatants were used for the present research, but they could also be stored at +4° C. for one week, or at −20° C. for 6 months, while keeping their activity.
# 1 L of each bacterial culture was combined, and biomass was removed by centrifugation at 17 700×g for 20 min. The cell-free medium supernatant was applied to 40 g of pre-equilibrated Amberlite™ XAD-16 resin packed in a column. The XAD-16 column was subsequently washed with 1 L of H2O, and then eluted with 1 L of 100% methanol. The methanolic elution was evaporated to dryness by rotary evaporation, and the brown residue was redissolved in 5 ml of purified water (Milli-Q system; Millipore, Bedford, Mass.). The concentrated solution was then applied onto a 12 gram Biotage® SNAP Ultra C18 column to be fractionate using reverse-phase flash chromatography on a Biotage (Stockholm, Sweden) Isorela One instrument. This chromatography was performed using a linear gradient acetonitrile from 5% to 100% over 50 min at 15 ml min^−1. […] The bioactivity of these fractions was further determined by performing agar disc diffusion assay. […]
# [4] = 3 weeks, Strepmycin 2.4 oz wt/a
Compound,Median score (disease severity 0-4) (E. amylovora S435 [1]),"Fire blight Severity: Average length of shoot with symptoms of Fire blight ([2]; 3 weeks after scissor inoculation, Strepmycin 8 oz wt/a, Cueva 64 fl oz/a, P. poae FL10F 20 % v/v, Blossom Protect 20 oz wt/a) [INCHES]","Fire blight Incidence: Average percentage of shoots with symptons of Fire blight following inoculation [2, 4] [%]","Fire blight Severity: Average length of shoot with symptoms of Fire blight [2, 4] [INCHES]","Fire blight Incidence: Average percentage of shoots with symptons of Fire blight following inoculation ([2]; 3 weeks, Strepmycin 8 oz wt/a, Cueva 64 fl oz/a, P. poae FL10F 20 % v/v, Blossom Protect 20 oz wt/a) [%]",Phytotoxicity: Percentage of leaves with atypical symptoms ([2]; Strepmycin 2.4 oz wt/a) [%],"Phytotoxicity: Percentage of leaves with atypical symptoms ([2]; Strepmycin 8 oz wt/a, Cueva 64 fl oz/a, P. poae FL10F 20 % v/v, Blossom Protect 20 oz wt/a) [%]",inhibition halos of the extracellular metabolite fraction on a lawn of E. amylovora S435 (E. amylovora S435 [3])
[H]/N=C(/N)N[C@H]1[C@H](O)[C@@H](O)[C@H](O[C@@H]2O[C@@H](C)[C@](O)(C=O)[C@H]2O[C@@H]2O[C@@H](CO)[C@H](O)[C@@H](O)[C@@H]2NC)[C@@H](N/C(N)=N\[H])[C@@H]1O [Streptomycin],0,3.89,81.73,5.53,52.39,0.00,0.00,–
oxydifficidin,–,–,–,–,–,–,–,comparable in diameter to that of the live strain itself or crude extracellular metabolites therefrom
white line-inducing principle [WLIP],–,–,–,–,–,–,–,comparable in diameter to that of the live strain itself or crude extracellular metabolites therefrom

# From patent publication US11337426B2, “Biological control agents against fire blight” (priority 2018, dated 2022)
